Our source for the GI50 and TGI values is PubChem BioAssay (NCI).

Test systems include COLO 205 colon; ACHN renal; RPMI-8226 leukemia; M14 melanoma; NCI-H23 lung; RXF 393 renal; HCT-15 colon; OVCAR-4 ovarian; SNB-19 CNS; SK-MEL-5 melanoma.
Common to all, as to assay: DTP human tumour cell line panel, 48 h

Molecules are shown by their SMILES.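 These data come from cells grown in 96-well plates and exposed to compound for 48 hours at five concentrations. GI50 is the concentration that inhibits growth by half. TGI denotes the concentration required for complete inhibition of growth.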

For orientation: GI50 means the concentration at which growth is held to half of that of the control. What is called TGI is the concentration at which net growth stops. A high value points to lower sensitivity of the cells.

Consider `CCN1CCN(c2ccc(NC(=O)Nc3nc4ccc(-c5ccccc5OC)cc4s3)cc2)CC1`, for which the GI50 in the assay with COLO 205 colon was 1.97 µM; in the assay on ACHN renal, 1.74 µM; in the assay with RPMI-8226 leukemia, 2.06 µM; in the assay on M14 melanoma, 1.62 µM; in the assay with NCI-H23 lung it was 1.67 µM; in the assay with RXF 393 renal, 1.7 µM. For the same compound, the GI50 in the assay on HCT-15 colon is 1.2 µM; in the assay on OVCAR-4 ovarian, 1.68 µM; with SNB-19 CNS, 2.03 µM; in the assay with SK-MEL-5 melanoma, 1.73 µM. The TGI in the assay with COLO 205 colon is 3.85 µM; in the assay on ACHN renal, 3.11 µM; with RPMI-8226 leukemia it was 4.6 µM; in the assay on M14 melanoma it was 3.03 µM; in the assay with NCI-H23 lung it was 3.65 µM; in the assay on RXF 393 renal, 3.3 µM. The TGI in the assay on HCT-15 colon is 2.47 µM; in the assay with OVCAR-4 ovarian it was 3.31 µM; with SNB-19 CNS, 3.65 µM; with SK-MEL-5 melanoma, 3.12 µM.
Regarding `O=C1/C=C/[C@@H](O)[C@@H]2C[C@@H](O)C[C@H]2/C=C/CCC[C@H](CCO)O1`, the concentration for 50% growth inhibition (GI50) was 0.104 µM in the assay with COLO 205 colon; 0.343 µM in the assay with ACHN renal; 0.33 µM in the assay with RPMI-8226 leukemia; 0.155 µM in the assay on M14 melanoma; 0.227 µM in the assay on NCI-H23 lung; 0.0272 µM in the assay on RXF 393 renal. The GI50 in the assay on HCT-15 colon is 0.35 µM; with OVCAR-4 ovarian, 0.132 µM; in the assay with SNB-19 CNS, 0.377 µM; in the assay with SK-MEL-5 melanoma it was 0.0201 µM. The total growth inhibition concentration (TGI) in the assay on COLO 205 colon is 0.241 µM; in the assay with ACHN renal, > 100 µM; with RPMI-8226 leukemia, 6.34 µM; with M14 melanoma, > 100 µM; with NCI-H23 lung, 2.3 µM; with RXF 393 renal it was 0.117 µM. The TGI with HCT-15 colon is > 100 µM; with OVCAR-4 ovarian, > 100 µM; in the assay on SNB-19 CNS, > 100 µM; in the assay on SK-MEL-5 melanoma, 0.0423 µM.
As for `C=CCC1(CN(C)C)CC/C(=C\c2ccc3c(c2)OCO3)C1=O` (stereo not given), the total growth inhibition concentration (TGI) was 54.1 µM in the assay with COLO 205 colon; > 100 µM with ACHN renal; 59.4 µM in the assay with RPMI-8226 leukemia; > 100 µM in the assay on M14 melanoma; > 100 µM in the assay with NCI-H23 lung; > 100 µM in the assay with RXF 393 renal. Also, the TGI is > 100 µM with HCT-15 colon, > 100 µM in the assay with OVCAR-4 ovarian, > 100 µM with SNB-19 CNS and 60.5 µM with SK-MEL-5 melanoma.
In the case of `CN1CCN(Cc2ccc(NC(=O)c3cncc(C#Cc4ccc(N)nc4)c3)cc2C(F)(F)F)CC1`, the GI50 is 0.865 µM with COLO 205 colon; 0.461 µM in the assay on ACHN renal; 1.05 µM in the assay with RPMI-8226 leukemia; 0.486 µM with M14 melanoma; 1.3 µM with NCI-H23 lung; 0.524 µM in the assay on RXF 393 renal. The GI50 in the assay with HCT-15 colon was 1.12 µM; in the assay with OVCAR-4 ovarian it was 0.46 µM; with SNB-19 CNS it was 2.6 µM; in the assay with SK-MEL-5 melanoma, 1.17 µM. For the same compound, the TGI worked out at 3.95 µM in the assay on COLO 205 colon; 4.4 µM in the assay on ACHN renal; 3.82 µM with RPMI-8226 leukemia; 1.63 µM in the assay with M14 melanoma; 6.27 µM with NCI-H23 lung; 2.14 µM in the assay on RXF 393 renal. Further, the TGI in the assay on HCT-15 colon turned out to be 5.96 µM; in the assay with OVCAR-4 ovarian, 4.5 µM; with SNB-19 CNS it was 9.44 µM; in the assay with SK-MEL-5 melanoma, 3.24 µM.
Consider `Cc1ccc2ccccc2c1CSc1nc(N)nc2c1ncn2CC(C)C`, for which the total growth inhibition concentration (TGI) in the assay on COLO 205 colon was 20.2 µM; in the assay on ACHN renal, > 100 µM; in the assay on RPMI-8226 leukemia, > 73.3 µM; in the assay with M14 melanoma, > 80.8 µM; with NCI-H23 lung it was > 100 µM; with RXF 393 renal it was > 90.7 µM. The TGI is > 100 µM with HCT-15 colon, > 100 µM in the assay on OVCAR-4 ovarian, > 100 µM in the assay on SNB-19 CNS and 20.3 µM in the assay with SK-MEL-5 melanoma.
Consider `CC1(c2ccc(F)cc2)C2C(=O)NC(=O)C1C(=O)NC2=O` (stereo not given), for which the TGI with COLO 205 colon, with ACHN renal, in the assay with RPMI-8226 leukemia, in the assay on M14 melanoma, in the assay on NCI-H23 lung and in the assay on RXF 393 renal was > 100 µM in each case. The TGI with HCT-15 colon, in the assay on OVCAR-4 ovarian, in the assay with SNB-19 CNS and in the assay on SK-MEL-5 melanoma was > 100 µM in each case.
As to `COC(=O)Nc1nc2ccc(C(=O)c3cccc(I)c3)cc2[nH]1`, the GI50 in the assay with COLO 205 colon was 0.0472 µM; with ACHN renal it was 0.13 µM; in the assay with RPMI-8226 leukemia it was 0.0365 µM; in the assay with M14 melanoma it was 0.072 µM; in the assay on NCI-H23 lung it was 0.183 µM; in the assay on RXF 393 renal, 0.0494 µM. The GI50 with HCT-15 colon is 0.0459 µM; with OVCAR-4 ovarian, 0.818 µM; in the assay on SNB-19 CNS, 0.0625 µM; with SK-MEL-5 melanoma, 0.068 µM. For the same compound, the TGI turned out to be 4.55 µM in the assay on COLO 205 colon; 21.1 µM with ACHN renal; 1.27 µM with RPMI-8226 leukemia; 20.7 µM with M14 melanoma; 21.1 µM in the assay with NCI-H23 lung; 1.05 µM in the assay with RXF 393 renal. The TGI in the assay on HCT-15 colon was 13.2 µM; in the assay on OVCAR-4 ovarian, 15.3 µM; in the assay with SNB-19 CNS, > 39.8 µM; in the assay on SK-MEL-5 melanoma, 2.31 µM.
As to `COc1cc(OC)c(/C=C/C(=O)c2c(OC)cc(OC)cc2OC)c(OC)c1`, the GI50 with COLO 205 colon is 1.08 µM; in the assay with ACHN renal, 2.3 µM; in the assay with RPMI-8226 leukemia, 0.566 µM; with M14 melanoma, 0.38 µM; in the assay on NCI-H23 lung, 1.35 µM; in the assay on RXF 393 renal it was 1.3 µM. The GI50 in the assay on HCT-15 colon is 0.458 µM; in the assay with OVCAR-4 ovarian it was 5.94 µM; in the assay with SNB-19 CNS it was 2.54 µM; in the assay on SK-MEL-5 melanoma, 0.818 µM. For the same compound, the TGI is 3.96 µM in the assay on COLO 205 colon; > 100 µM with ACHN renal; 3.03 µM with RPMI-8226 leukemia; 1.78 µM in the assay on M14 melanoma; 6.67 µM in the assay with NCI-H23 lung; 4.99 µM in the assay with RXF 393 renal. Besides, the total growth inhibition concentration (TGI) is 33.4 µM in the assay on HCT-15 colon, > 100 µM in the assay with OVCAR-4 ovarian, 14.9 µM in the assay on SNB-19 CNS and 11.2 µM in the assay with SK-MEL-5 melanoma.
Take `CC(C)(C)NCC(O)c1ccccc1Cl` (stereo not given): the GI50 with COLO 205 colon, with ACHN renal, with RPMI-8226 leukemia, with M14 melanoma, with NCI-H23 lung and in the assay with RXF 393 renal was > 100 µM throughout. Moreover, the GI50 in the assay with HCT-15 colon, in the assay on OVCAR-4 ovarian, with SNB-19 CNS and in the assay with SK-MEL-5 melanoma was > 100 µM in each case. Also, the TGI with COLO 205 colon, in the assay on ACHN renal, with RPMI-8226 leukemia, with M14 melanoma, in the assay on NCI-H23 lung and with RXF 393 renal was > 100 µM throughout. For the same compound, the TGI in the assay on HCT-15 colon, in the assay on OVCAR-4 ovarian, with SNB-19 CNS and in the assay on SK-MEL-5 melanoma was > 100 µM in each case.
With `C/C(=N\N=C(N)N)C(CN1CCOCC1)C(c1ccccc1)c1c(O)c2ccccc2oc1=O` (stereo not given), the TGI with COLO 205 colon, in the assay with ACHN renal, in the assay on RPMI-8226 leukemia, with M14 melanoma, with NCI-H23 lung and in the assay with RXF 393 renal was > 100 µM in each case. In addition, the TGI with HCT-15 colon, in the assay on OVCAR-4 ovarian, with SNB-19 CNS and with SK-MEL-5 melanoma was > 100 µM each time.
On to `Cc1cc(OCc2ccc(C(F)(F)F)cc2)c2c(c1)C(=O)C=C(NCCN1CCCC1)C2=O`, for which the GI50 in the assay with COLO 205 colon is 1.9 µM; in the assay with ACHN renal, 1.97 µM; in the assay on RPMI-8226 leukemia, 1.87 µM; in the assay with M14 melanoma, 1.88 µM; in the assay on NCI-H23 lung, 4.92 µM; in the assay on RXF 393 renal it was 1.37 µM. The GI50 with HCT-15 colon was 1.95 µM; in the assay on OVCAR-4 ovarian, 4.01 µM; in the assay on SNB-19 CNS, 2.46 µM; with SK-MEL-5 melanoma, 1.53 µM. Besides, the TGI with COLO 205 colon stood at 3.72 µM; in the assay with ACHN renal, 4.08 µM; in the assay with RPMI-8226 leukemia, 4.36 µM; with M14 melanoma, 3.56 µM; in the assay with NCI-H23 lung, 18.7 µM; in the assay on RXF 393 renal it was 2.94 µM. For the same compound, the total growth inhibition concentration (TGI) amounted to 4.82 µM in the assay with HCT-15 colon, 15.5 µM in the assay on OVCAR-4 ovarian, 6.2 µM with SNB-19 CNS and 2.88 µM in the assay on SK-MEL-5 melanoma.
In the case of `CCOC(=O)N1CCC(N=C2CSc3nnc(-c4cc(C(F)(F)F)cc(C(F)(F)F)c4)n3N2)CC1`, the GI50 is 2.17 µM in the assay on COLO 205 colon; 2.53 µM in the assay on ACHN renal; 2.54 µM with RPMI-8226 leukemia; 1.95 µM with M14 melanoma; 2.66 µM in the assay on NCI-H23 lung; 1.57 µM with RXF 393 renal. Also, the GI50 was 2.29 µM in the assay with HCT-15 colon, 1.86 µM in the assay with OVCAR-4 ovarian, 3.14 µM in the assay with SNB-19 CNS and 1.61 µM in the assay with SK-MEL-5 melanoma. For the same compound, the TGI worked out at 3.93 µM in the assay with COLO 205 colon; 5.99 µM with ACHN renal; 7.11 µM in the assay on RPMI-8226 leukemia; 3.54 µM with M14 melanoma; 8.37 µM in the assay with NCI-H23 lung; 3.08 µM in the assay on RXF 393 renal. For the same compound, the TGI was 5.4 µM in the assay on HCT-15 colon, 5.49 µM in the assay on OVCAR-4 ovarian, 11.9 µM in the assay on SNB-19 CNS and 3 µM in the assay on SK-MEL-5 melanoma.
